The values below are quoted from earlier work in US20120270995A1, “AQUEOUS FORMULATIONS INCLUDING DIOXOLANES AS COUPLING AGENTS” (RHODIA POLIAMIDA E ESPECIALIDADES LTDA, priority 2009, published 2012).

Where two headings read alike, the source gives them in different places.

The conditions of data set [1]: in vivo.
Experiment in data set [2]: not given
The source holds these as a separate data set.

For data set [3] the following is noted: in vivo. The source holds these as a separate data set.
For data set [4] the following is noted: in vivo. This is another data set of the same source.
The conditions of data set [5]: CMR = carcinogenic/mutagenic/reproductively toxic.

Consider Methylglycol, for which the Acute oral toxicity was 18 000 mg/kg. In addition, in data set [1], the Skin irritation result is on record as “weak”. Moreover, in data set [2] (20° C.), the Vapour point is on record as 6.2 mmHg. The Eye irritation result in data set [3] is on record as “severe”. In addition, the Aquatic toxicity in data set [4] is 18 000 mg/l.
As to `CCOCCOC(C)=O` [Ethylglycol acetate], the Acute oral toxicity was 2900 mg/kg. For the same molecule, the Skin irritation entry in data set [1] is recorded as “severe”. Moreover, the Vapour point in data set [2] (20° C.) was 2.0 mmHg. For the same molecule, in data set [3], the Eye irritation entry is given as “severe”. For the same molecule, the Aquatic toxicity in data set [4] is 244.66 mg/L. In addition, in data set [5], the CMR entry is on record as “cat. 2”.
Consider `CCOCCOCCO` [Ethyldiglycol], for which the Acute oral toxicity is 5500 mg/kg. Moreover, the Skin irritation result in data set [1] is recorded as “severe”. For the same molecule, in data set [2] (25° C.), the Vapour point is on record as 0.1 mmHg. The Eye irritation result in data set [3] is “severe”. In addition, the Aquatic toxicity in data set [4] was 13 400 mg/l.
`CCCCOCCOC(C)=O` [Butylglycol acetate]: the Acute oral toxicity was 2360 mg/kg. Also, the Skin irritation entry in data set [1] was “weak”. The Vapour point in data set [2] (20° C.) is given as 0.4 mmHg. Moreover, the Eye irritation result in data set [3] is reported as “weak”. For the same molecule, the Aquatic toxicity in data set [4] was 103.17 mg/L.
Consider `CC1(C)OCC(CO)O1` (stereo not drawn) [Solketal, 2,2-Dimethyl-1,3-dioxolane-4-methanol], for which the Acute oral toxicity is 7000 mg/kg. Further, the Skin irritation result in data set [1] was “moderate”. The Vapour point in data set [2] (37.8° C.) was 52.0 mmHg. For the same molecule, the Eye irritation result in data set [3] is listed as “moderate”. Besides, in data set [4], the Aquatic toxicity is more than 1000 mg/L.
Turning to `CCOCCO` [Ethylglycol], the Acute oral toxicity is 3000 mg/kg. Besides, the Skin irritation entry in data set [1] is given as “moderate”. In data set [2] (25° C.), the Vapour point is recorded as 5.3 mmHg. In data set [3], the Eye irritation result is given as “weak”. Besides, the Aquatic toxicity in data set [4] is 5000 mg/L. In data set [5], the CMR result is given as “cat. 2”.
In the case of `CCCCOCCO` [Butylglycol], the Vapour point in data set [2] (20° C.) is given as 0.8 mmHg.
